≈ marks a conversion by molar mass, not a printed value.
Columns and labels:
[1] = Bioavailability in rat at 3 mg/kg, iv and 10 mg/kg, po; assay type: ADME, organism-based; details: in vivo
NIH3T3 = experiment: Antiproliferative activity against mouse 3T3 cells expressing human CSF1R after 72 hrs by Celltiter assay; assay type: functional
[2] = Volume of distribution at steady state in rat at 3 mg/kg, iv and 10 mg/kg, po; assay type: ADME, organism-based; details: in vivo, read-out: Vdss
[3] = Clearance in rat at 3 mg/kg, iv and 10 mg/kg, po; assay type: ADME, organism-based; details: in vivo
[4] = Half life in rat at 3 mg/kg, iv and 10 mg/kg, po; assay type: ADME, organism-based; details: in vivo
[5] = Aqueous solubility of the compound; assay type: physicochemical; details: buffer
[6] = Plasma protein binding assessed as percentage unbound
Mus musculus [7] = experiment: Inhibition of phosphorylated CSF1R level in 3T3/CSF1R mutant cells xenografted nude mouse at 25 mg/kg, po after 6 hrs by ELISA; assay type: functional
Mus musculus [8] = experiment: Inhibition of phosphorylated CSF1R level in 3T3/CSF1R mutant cells xenografted nude mouse at 25 mg/kg, po after 2 hrs by ELISA; assay type: functional

Row | SMILES | bioavailability [1] [%] | Activity (NIH3T3) [µM] | Vd [2] [L/kg] | clearance [3] [mL/min/kg] | half-life [4] [h] | solubility [5] [µM] | fraction unbound [6] | inhibition in vivo at 25 mg/kg (Mus musculus [7]) [%] | inhibition in vivo at 25 mg/kg (Mus musculus [8]) [%]
1 | COc1cc2ncc(C(N)=O)c(Nc3ccc(F)cc3F)c2cc1OC | 100 | 0.4 | 0.9 | 23 | 0.6 |  |  |  | 
2 | CCOc1cc2ncc(C(N)=O)c(Nc3ccc(F)cc3F)c2cc1N1CCN(CC)CC1 | 46 | 0.17 | 3.6 | 19 | 2.3 | 320 (≈ 146 µg/mL) | 0.046 |  | 
3 | CCOc1cc2ncc(C(N)=O)c(Nc3ccc(Cl)c(Cl)c3)c2cc1N1CCN(C)CC1 | 42 | 0.06 | 3.7 | 47 | 1.2 | 3 (≈ 1.42 µg/mL) |  | 40 | 80
4 | CCOc1cc2ncc(C(N)=O)c(Nc3cccc(Cl)c3Cl)c2cc1N1CCN(C(C)=O)CC1 | 11 | 0.07 | 2.3 | 62 | 0.65 | 2 (≈ 1 µg/mL) | 0.096 | 30 | 65
5 | CCOc1cc2ncc(C(N)=O)c(Nc3ccc(F)c(Cl)c3)c2cc1N1CCN(C)CC1 | 55 | 0.13 | 9.3 | 53 | 2.2 |  | 0.034 | 55 | 70
6 | CCOc1cc2ncc(C(N)=O)c(Nc3cccc(Cl)c3Cl)c2cc1N1CCN(CCOC)CC1 |  | 0.03 |  |  |  | 13 (≈ 6.74 µg/mL) | 0.017 |  | 
7 | CC(C)Oc1cc2ncc(C(N)=O)c(Nc3cccc(Cl)c3Cl)c2cc1N1CCN(C)CC1 |  | 0.05 |  |  |  | 200 (≈ 97.7 µg/mL) | 0.014 | 35 | 70
8 | COCCOc1cc2ncc(C(N)=O)c(Nc3ccc(F)cc3F)c2cc1N1CCN(C)CC1 | 100 |  | 18 | 68 | 3.8 | 720 (≈ 339 µg/mL) | 0.46 | 70 | 100
9 | CCOc1cc2ncc(C(N)=O)c(Nc3ccc(F)cc3F)c2cc1N1CCCN(C)CC1 | 16 |  | 16 | 32 | 6.6 | 530 (≈ 241 µg/mL) | 0.31 | 55 | 90
10 | COCCOc1cc2ncc(C(N)=O)c(Nc3cccc(Cl)c3F)c2cc1N1CCN(C)CC1 |  | 0.1 |  |  |  | 910 (≈ 444 µg/mL) | 0.39 | 75 | 80
11 | CCOc1cc2ncc(C(N)=O)c(Nc3ccc(F)cc3F)c2cc1N1CCC(O)CC1 |  |  |  |  |  | 2 (≈ 0.885 µg/mL) | 0.089 |  | 
12 | CCOc1cc2ncc(C(N)=O)c(Nc3ccc(F)cc3F)c2cc1N1CCN(C2CC2)CC1 | 34 | 0.66 | 0.6 | 21 | 0.9 | 150 (≈ 70.1 µg/mL) |  | 10 | 70
13 | CCOc1cc2ncc(C(N)=O)c(Nc3cccc(Cl)c3Cl)c2cc1N1CCN(CC)CC1 | 19 | 0.02 | 6.8 | 86 | 1.2 | 11 (≈ 5.37 µg/mL) | 0.019 | 75 | 95
14 | CCOc1cc2ncc(C(N)=O)c(Nc3cccc(Cl)c3F)c2cc1N1CCN(C)CC1 | 54 | 0.11 | 1.9 | 24 | 1.1 | 10 (≈ 4.58 µg/mL) | 0.071 | 90 | 100
15 | CCOc1cc2ncc(C(N)=O)c(Nc3ccc(F)cc3F)c2cc1N1CCN(C(C)C)CC1 |  | 0.17 |  |  |  | > 1000 |  | 50 | 70
16 | CCOc1cc2ncc(C(N)=O)c(Nc3cc(F)ccc3F)c2cc1N1CCN(C)CC1 | 33 | 0.11 | 2.9 | 28 | 1.3 | 71 (≈ 31.3 µg/mL) | 0.073 | 45 | 75
17 | COc1cc2c(Nc3cccc(Cl)c3Cl)c(C(N)=O)cnc2cc1N1CCN(C)CC1 |  | 0.17 |  |  |  | 220 (≈ 101 µg/mL) |  |  | 
18 | COc1cc2ncc(C(N)=O)c(Nc3ccc(Cl)c(Cl)c3)c2cc1N1CCN(C)CC1 |  | 0.38 | 3.8 | 50 | 1.2 |  | 0.036 |  | 
19 | CCOc1cc2ncc(C(N)=O)c(Nc3ccc(F)cc3F)c2cc1N1CCCN(C2CC2)CC1 |  | 0.27 |  |  |  | 100 (≈ 48.2 µg/mL) | 0.022 |  | 
20 | CCOc1cc2ncc(C(N)=O)c(Nc3ccc(F)cc3F)c2cc1N1CCOCC1 | 25 | 0.48 | 1.1 | 36 | 0.6 | 64 (≈ 27.4 µg/mL) | 0.084 |  | 
21 | CCOc1cc2ncc(C(N)=O)c(Nc3ccc(C)cc3F)c2cc1N1CCN(C)CC1 | 46 |  | 1.8 | 10 | 2.3 | 54 (≈ 23.6 µg/mL) |  | 60 | 
22 | CCOc1cc2ncc(C(N)=O)c(Nc3cccc(Cl)c3Cl)c2cc1N1CCN(CCO)CC1 |  | 0.03 |  |  |  | 67 (≈ 33.8 µg/mL) | 0.048 |  | 
23 | CCOc1cc2ncc(C(N)=O)c(Nc3cc(C)ccc3F)c2cc1N1CCN(C)CC1 | 88 | 0.09 | 5.3 | 28 | 2.3 | 66 (≈ 28.9 µg/mL) |  | 80 | 90
24 | CC(C)Oc1cc2ncc(C(N)=O)c(Nc3ccc(Cl)c(Cl)c3)c2cc1N1CCN(C)CC1 |  | 0.12 |  |  |  | 250 (≈ 122 µg/mL) | 0.01 |  | 
25 | CCOc1cc2ncc(C(N)=O)c(Nc3cccc(Cl)c3Cl)c2cc1N1CCN(C(=O)CO)CC1 | 6 | 0.09 | 2.2 | 72 | 0.66 | 29 (≈ 15 µg/mL) | 0.16 |  | 
26 | CC(C)Oc1cc2ncc(C(N)=O)c(Nc3cccc(Cl)c3F)c2cc1N1CCN(C)CC1 |  | 0.21 |  |  |  | 790 (≈ 373 µg/mL) | 0.049 |  | 
27 | CCOc1cc2ncc(C(N)=O)c(Nc3cccc(Cl)c3Cl)c2cc1N1CCCN(C(C)C)CC1 |  | 0.02 |  |  |  | 420 (≈ 217 µg/mL) | 0.049 | 75 | 90
28 | COCCOc1cc2ncc(C(N)=O)c(Nc3ccc(C)cc3F)c2cc1N1CCN(C)CC1 | 100 |  | 8.6 | 33 | 3.4 | 63 (≈ 29.5 µg/mL) | 0.16 | 80 | 100
29 | COCCOc1cc2ncc(C(N)=O)c(Nc3cc(C)ccc3F)c2cc1N1CCN(C)CC1 | 45 | 0.17 | 4.7 | 60 | 4.2 |  | 0.16 | 70 | 85

From ChEMBL document CHEMBL1143306, “3-amido-4-anilinoquinolines as CSF-1R kinase inhibitors 2: Optimization of the PK profile” (Bioorg Med Chem Lett, 2009)
